Earlier results on one molecule are cited in US20110293691A1, “MULTIMODAL ADHESION BARRIER” (priority 2010, published 2011).

For this series, the system named is rat model. Conditions: oral or intraperitoneal, about one week prior to surgery and three weeks postoperatively.

Molecules are shown by their SMILES.

As to `O=C(CC1NCCCC1O)Cn1cnc2cc(Br)c(Cl)cc2c1=O` (stereo not shown) [Halofuginone, 7-bromo-6-chloro-3-[3-(3-hydroxy-2-piperidinyl)-2-oxopropyl]-4(3H)], the “prevention of adhesions (in words)” value was “prevent adhesions in a rat model in a dose dependent manner”.
